Measurements from PMC6934184, “Selective DNA-PKcs inhibition extends the therapeutic index of localized radiotherapy and chemotherapy” (The Journal of Clinical Investigation, 2019).

Biological target: T1, RIPK2 (Homo sapiens, UniProt O43353)
T1 construct: purchased Thermo Fisher Scientific (Life Technologies) SelectScreen
Assay: SelectScreen LanthaScreen
Format: binding
Conditions: read-out: % displacement
Experimental: The in vitro kinase selectivity of NU5455 was determined using the SelectScreen Broad Assay Panel (Thermo Fisher Scientific) involving activity and binding assays (Supplemental Table 1). […] Class IA PI3Ks were measured using the p85α subunit.
Kinase [ATP] % Assay Kinase [ATP] % Assay Kinase [ATP] % Assay Kinase [ATP] % Assay […]
MAPK11 (p38 beta) Km app 9.5 Z RIPK2 n/a 3.1 L AKT2 (PKB beta) Km app 0.0 Z PRKCE (PKC epsilon) Km app -4.9 Z […]
SGK (SGK1) Km app 8.5 Z MAP4K2 (GCK) Km app 2.7 Z TLK2 n/a -0.3 L STK38 (NDR) n/a -5.9 L
MERTK (cMER) Km app 8.3 Z CDK2/cyclin A Km app 2.7 Z TGFBR1 (ALK5) n/a -0.4 L MATK (HYL) Km app -6.3 Z
FYN Km app 8.3 Z EPHA1 Km app 2.7 Z CLK3 Km app -0.5 Z ABL1 E255K Km app -6.6 Z
TEC n/a 8.1 L CDK2/cyclin E1 n/a 2.7 L MAP3K14 (NIK) n/a -0.5 L STK17A (DRAK1) n/a -6.6 L
KIT V654A n/a 8.1 L TESK2 n/a 2.7 L AKT3 (PKB gamma) Km app -0.5 Z JAK2 JH1 JH2 Km app -6.7 Z
ROS1 Km app 8.0 Z SPHK1 Km app 2.7 A MAP3K9 (MLK1) Km app -0.5 Z PRKACB (PRKAC beta) n/a -6.8 L
FGFR3 K650E Km app 7.9 Z AMPK A2/B1/G1 Km app 2.6 Z IKBKB (IKK beta) Km app -0.6 Z PDGFRA (PDGFR alpha) Km app -6.8 Z
RAF1 (cRAF) Y340D Y341D 100 7.9 Z DYRK3 Km app 2.6 Z CAMK2A (CaMKII alpha) Km app -0.6 Z NEK9 Km app -7.2 Z
PI4KA (PI4K alpha) 10 7.8 A CSNK1D (CK1 delta) Km app 2.6 Z PRKCB1 (PKC beta I) Km app -0.7 Z PDK1 Km app -7.3 Z […]

T1 sequence (O43353 whole entry): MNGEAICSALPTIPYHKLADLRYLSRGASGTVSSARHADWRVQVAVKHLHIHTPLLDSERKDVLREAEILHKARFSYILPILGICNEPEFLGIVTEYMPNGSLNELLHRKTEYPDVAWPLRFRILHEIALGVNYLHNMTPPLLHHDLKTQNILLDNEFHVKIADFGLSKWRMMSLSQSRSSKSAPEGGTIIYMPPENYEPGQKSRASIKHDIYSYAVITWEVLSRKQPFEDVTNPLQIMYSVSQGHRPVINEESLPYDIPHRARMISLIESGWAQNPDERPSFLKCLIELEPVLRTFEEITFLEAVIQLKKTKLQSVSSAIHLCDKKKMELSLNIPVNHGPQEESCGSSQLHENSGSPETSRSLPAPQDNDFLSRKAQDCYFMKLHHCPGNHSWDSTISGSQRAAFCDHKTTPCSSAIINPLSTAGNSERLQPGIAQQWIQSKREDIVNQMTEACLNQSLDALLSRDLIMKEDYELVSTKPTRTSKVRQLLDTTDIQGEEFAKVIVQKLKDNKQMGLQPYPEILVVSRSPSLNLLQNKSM

CN(C(=O)CN1CCOCC1)c1ccc2sc3c(-c4cccc5c(=O)cc(N6CC7CCC(C6)O7)oc45)cccc3c2c1 [NU5455]
inhibition at 1 µM: 3.1%
